Reference: patent US20120082626A1, “USE OF R-BAMBUTEROL AS INHALED MEDICAMENT AND COMBINATION THERAPIES FOR TREATMENT OF RESPIRATORY DISORDERS” (priority 2009, published 2012)
Marks after values point to notes of the source that are not given here.

Legend:
[1] = oral; cited from earlier work
[2] = test system: OVA evoked asthma in sensitized guinea pigs; assay: Airway resistance in OVA asthma attack after oral administration in sensitized guinea pigs; format: in vivo
Method: Sensitized animals were divided into Saline (control), S-Bambuterol and R-bambuterol groups. R or S bambuterol were administered by both inhalation by oral ([…]). Airway resistance (Raw) and dynamic pulmonary compliance (Cdyn) were measured at resting or during astham challenge by OVA. Animal preparation and experimental methods were similar as described previously.

[3] = test system: OVA evoked asthma in sensitized guinea pigs; assay: Drug tolerance to R-bambuterol induced by pretreatment; format: in vivo; conditions: for Changes in Cdyn During asthma / Changes in Raw During asthma: OVA challenge, n=8
Method: Animal sensitization and experiment methods were similar as discribed above. Briefly, animals were divided into three groups. R-bambuterol (8 mg/kg) or S-bamburerol (8 mg/kg) or 0.9% NaCL (control) were given orally in equal volum to each group seperatedly once a day for 7 consecutive days in order to induce drug tolerances. The Protection effects of same dosage of R-bambuterol against asthma attack induced by OVA challenge were evaluated by the changes of Airway resistance (Raw) and dynamic pulmonary compliance (Cdyn).

[4] = test system: histamine evoked asthma in conscious guinea-pigs; assay: Histamine-evoked asthma in conscious guinea pigs after oral administration; format: in vivo, guinea pigs (Dunkin-Hartley strain); conditions: for Latency: no collapse over 360 sec recorded as 360
Method: (§1) Test methods: Guinea pigs (Dunkin-Hartley strain, 200±30 g) were fasted overnight but given water ad libidum. The animals were restrained individually in a glass chamber and exposed to aerosol histamine generated by a nebulizer from a 0.2% aqueous solution of histamine under constant pressure at dose of 0.5 ml/min for a period of 15 sec. The animal was removed from the chamber, and its behavior was monitored. Assign of collapse and the latency time from exposure to collapse were recorded. Only the animals with latency time less than 120 sec, as an indication of sensitive to histamine, were chosen for later experiments. The animals chosen were allowed to recover completely by resting for 24 hours before experiments. R-bambuterol and racemic bambuterol hydrochloride were dissolved in saline and nublized in a nebulizer.
Comparison of the anti-asthma effects of R-bambuterol (R-BM) and bambuterol (RS-BM) administered by oral and by inhalation in conscious guinea pigs. Test methods: same as Example 1.
Study of dose-response: Same as Example 1, except the following: four hours before the exposure to aerosol histamine, animals were randomized into groups (n=8, equal male and female), and given R-bambuterol hydrochloride or racemic bambuterol hydrochloride in doses of 1.0, 2.0, 4.0 and 8.0 mg/kg, and vehicle control, orally via a stomach tube.

[5] = test system: histamine evoked asthma in conscious guinea-pigs; assay: Time course of anti-asthma effects after oral administration or inhalation; format: in vivo; conditions: for No. of collapsed: n=8
Method: The time course of the anti-asthma effects of R-bambuterol (R-BM) and bambuterol (RS-BM) after administered by oral and by inhalation. Test Methods: same as example 1 except the following:
For orally administration, R-Bambuterol hydrochloride or racemic bambuterol hydrochloride at 4 and 8 mg/kg, and vehicle alone, were administered to the guinea pigs orally via a stomach tube. Exposure of treated animals to aerosol histamine (as above) was done at 1, 4 and 12 hours after R-bambuterol or bambuterol treatment. For each experimental group, there were a total of 8 animals with equal number in sex, and no repeated exposure was made for individual experimental animals.
For inhalation, R-Bambuterol hydrochloride or racemic bambuterol hydrochloride at 0.252 and 0.504 mg/kg, and vehicle alone, were nebulized and administered to the guinea pigs by inhalation. Exposure of drug treated animals to aerosol histamine (as above) was done at 1,4 and 12 hours after drug treatment. For each experimental group, there were a total of 8 animals with equal number in sex, and no repeated exposure was made for individual experimental animals.

[6] = test system: histamine evoked asthma in conscious guinea-pigs; assay: Protection against histamine-evoked asthma by inhaled drug in conscious guinea pigs; format: in vivo, guinea pigs (Dunkin-Hartley strain); conditions: for Latency: no collapse over 360 sec recorded as 360
Method: as §1
Study of dose-response: One hours before the exposure to aerosol histamine, animals were randomized into groups (n=8, equal sex), and Nublized R-bambuterol hydrochloride or bambuterol hydrochloride in doses of 63, 126, 252 and 504 μg/kg, and vehicle control were inhaled by the animals via a mouth and nasal mask. The numbers of collapsed animal as a result of asthmatic reaction to aerosol histamine were counted, and the latency times were recorded. Both of these parameters were used as quantitative measurements of the protective effects of the treatments on bronchospasm evoked by aerosol histamine.

[7] = test system: OVA evoked asthma in sensitized guinea-pigs; assay: Relief of antigen-evoked asthma by inhalation after challenge in OVA sensitized guinea-pigs; format: in vivo; conditions: nebulized drug inhaled after antigen challenge
Description: In an embodiment of the invention, the ovalbumin (OVA) sensitized guinea-pigs were first challenged with nebulized antigen to evoke asthma, then the animals were allowed to inhale nebulized R-bambuterol or bambuterol. […] In a further embodiment of the invention, the sensitized guinea-pigs were first pretreated with nebulized R-bambuterol or bambuterol by inhalation. After three minutes, the same animals were challenged with nebulized antigen. […] The fast onset of action in the invention can also not be explained by Svenssion's in vitro metabolic study noted above that the dominate product is mono-carbamate bambuterol and litter terbutaline at initial phase., while the major amount of terbutaline will be formed at much later phase. (Svensson et al., 1988).

[8] = test system: OVA evoked asthma in sensitized guinea pigs; assay: Airway resistance and dynamic pulmonary compliance after inhalation in OVA sensitized guinea pigs; format: in vivo; conditions: n=8
[9] = pretreated with the labelled substance 8 mg/kg orally once a day 7 days, then R-bambuterol
[10] = saline pretreated group, protection by R-bambuterol
[11] = oral, at maximum effective dose (R-BM 4.0, RS-BM 8.0 mg/Kg)
[12] = inhalation (R-BM 252 μg/kg, RS-BM 504 μg/kg), histamine 60 min after
[13] = inhalation (R-BM 252 μg/kg, RS-BM 504 μg/kg), histamine 240 min after
[14] = inhalation (R-BM 252 μg/kg, RS-BM 504 μg/kg), histamine 720 min after
[15] = oral (R-BM 4.0 mg/kg, RS-BM 8.0 mg/kg), histamine 60 min after
[16] = oral (R-BM 4.0 mg/kg, RS-BM 8.0 mg/kg), histamine 240 min after
[17] = oral (R-BM 4.0 mg/kg, RS-BM 8.0 mg/kg), histamine 720 min after
[18] = inhale, at maximum effective dose (R-BM 0.252, RS-BM 0.505 mg/Kg)
[19] = R-BM inhaled 504 μg/kg, OVA challenge
[20] = after R-BM inhaled 504 μg/kg, before OVA challenge

## CN(C)C(=O)Oc1cc(OC(=O)N(C)C)cc([C@@H](O)CNC(C)(C)C)c1 [R-bambuterol]
[1]
  time of maximum concentration (tmax): around one
[2]; oral
  change in Raw / asthmatic response during the asthmatic attack by OVA: little changes in Raw
[2]; pretreated oral 4 m/kg, n=8
  Changes in Airway resistance (Raw) at 4th min after OVA challenge: 0.14 ± 0.13
  Changes in Airway resistance (Raw) at 5th min after OVA challenge: 0.11 ± 0.08
[3]; group pretreated with the labelled substance
  protection effects of R-bambuterol against asthmatic attack after pretreatment: less than control but no significant differences
[3]; [9]
  Changes in Cdyn During asthma: −0.11 ± 0.08
  Changes in Raw During asthma: +0.13 ± 0.09
[3]; saline pretreated control group
  protection against asthma attack in control group: fully protect against asthma attack
[3]; [10]
  Changes in Cdyn During asthma: −0.08 ± 0.06^•
  Changes in Raw During asthma: +0.09 ± 0.03^•
[4]; oral
  maximum effective dose required by oral (none of the histamine challenged animals collapsed): 4 mg/kg
[4]; oral 1.0 mg/Kg
  Latency: 179 ± 151 s
[4]; oral 2.0 mg/Kg
  Latency: 295 ± 121 s
[4]; oral 4.0 mg/Kg, four hours before aerosol histamine, n=8
  (Collapsed)/No. in group: 0/8**^▴▴
[4]; oral 4.0 mg/Kg
  Latency: 360 ± 0 s
[4]; oral 8.0 mg/Kg
  Latency: 360 ± 0 s
[4]; [11]
  Animal collapsed (%): 0%
  Animal collapsed (number/group): 0/8
[4]; oral, listed as R-BM
  maximum effective dose required by oral (none of the histamine challenged animals collapsed): Oral (4.0) mg/Kg
[5]; [12]
  Latency: 360 ± 0 s
  No. of collapsed: 0/8
[5]; [13]
  Latency: 360 ± 0 s
  No. of collapsed: 0/8
[5]; [14]
  Latency: 330 ± 84 s
  No. of collapsed: 1/8
[5]; inhalation vs oral
  maximum anti-asthmatic effects by inhalation faster than by oral administration: 4 h
[5]; [15]
  Latency: 258 ± 141 s
  No. of collapsed: 3/8
[5]; [16]
  Latency: 360 ± 0 s
  No. of collapsed: 0/8
[5]; [17]
  Latency: 285 ± 129 s
  No. of collapsed: 2/8
[6]; inhalation
  dosage required for maximum anti-asthmatic effects (complete protection against histamine) by inhalation: 256 µg/kg
[6]; inhale
  maximum effective dose required by inhalation: Inhale (0.252) mg/Kg
[6]; [18]
  Animal collapsed (%): 0%
  Animal collapsed (number/group): 0/8
[6]; inhaled 63 μg/Kg
  Latency: 95 ± 108 s
[6]; inhaled 126 μg/Kg
  Latency: 243 ± 161 s
[6]; inhaled 252 μg/Kg
  Latency: 360 ± 0 s
[6]; inhaled 504 μg/Kg
  Latency: 360 ± 0 s
[6]; inhaled aerosols, histamine evoked asthma
  potency relative to bambuterol: about twice
[6]; oral dose vs inhaled dose for maximum anti-asthmatic effect, listed as R-bamubuterol
  Oral:Inhale ratio of maximum effective dose: 16
[7]
  relief of asthmatic symptoms after inhalation: immediately relieved within matter of tenths of seconds to a couple of minutes
[8]; [19]
  Cdyn (dynamic pulmonary compliance): 0.62 ± 0.02
  Raw (airway resistance): 11.51 ± 1.09
[8]; [20]
  Cdyn (dynamic pulmonary compliance): 0.70 ± 0.03
  Raw (airway resistance): 10.91 ± 0.41
